Data on seven molecules can be found in US20030022243A1, “Protein aggregation assays and uses thereof” (priority 2001, published 2003).

SMILES strings stand for the structures.

What all share (format): biochemical
Assay [1] concerns the target Zinc-deficient SOD-1 (Homo sapiens, UniProt P00441). Briefly: MCO-induced aggregation of zinc-deficient SOD-1, light scattering. Particulars: 37° C. Here is the method: Apo-SOD-1 was incubated in the presence of a 1.1-fold molar excess of CuCl2 in 17 mM sodium acetate buffer, pH 3.8, for 24 hours at 40° C.
Zinc-deficient SOD-1 was prepared, MCO-treated, and used to test various compounds and conditions for their effect on SOD-1 aggregation. Zinc-deficient SOD-1 aggregation mixtures were incubated with either 2 mM EDTA, 10 mM mannitol, or 10 mM DMPO as probes for the reactive oxygen species. Anaerobic conditions were achieved by degassing all solutions and oxidizing under vacuum (37° C.) in a vacuum hydrolysis tube (Pierce). Aggregates were detected using light scattering measurements made with a Photon Technology International QM-1 fluorescence spectrophotometer. Excitation and emission wavelengths were set to 350 nm (bandpass=4 nm).

Assay [2] concerns the target apo-SOD-1 (Homo sapiens, UniProt P00441). Briefly: Native state stabilization assay (thermal aggregation of apo-SOD-1, RP-HPLC of soluble SOD-1). As to conditions: apo-SOD-1 incubated at 60° C. with exogenous metal. The method, then:
Apo-SOD-1 was prepared from holo-SOD-1 as reported (Crow et al., J. Neurochem., 69:1936, 1997). Holo-SOD-1 was first extensively dialyzed against 10 mM sodium acetate buffer containing 1 mM EDTA, pH 3.8 for 24-72 hours, then dialyzed against 10 mM sodium acetate buffer containing 100 mM NaCl, pH 3.8, and finally dialyzed against the desired buffer.
For FIG. 17, apo-SOD-1 (100 μl) prepared as described above at a concentration of 30 μM in 10 mM sodium acetate buffer, pH 5.0, was incubated for 24 hours at either 4°, 37°, or 60° C. in sealed polypropylene tubes. […] RP-HPLC was carried out on a Zorbax SB300 C8 column (3.0×10 cm, 3.5 μm particle size) using a linear 4% B per min AB gradient at a flow rate of 1.0 ml/min, where A was 0.1% aqueous TFA and B was 0.1% TFA in acetonitrile. Detection was based on UV absorbance at 215 nm. In contrast, the sample incubated at 60° C. contained essentially no soluble SOD-1 in the supernatant as measured by the same method of analysis.
An example of the use of the native state stabilization assay to test agents for inhibition of aggregation can be found in FIG. 18. Apo-SOD-1 samples were incubated under various conditions and analyzed by RP-HPLC to quantitate amounts of soluble SOD-1 remaining. Apo-SOD-1 incubated at 4° C. […] (positive aggregation control; chromatogram a). […]

For assay [3], the target named is T1, SOD-1, from human erythrocytes (Homo sapiens, UniProt P00441).
T1 construct: SOD-1 was purchased from Sigma (purified from erythrocytes) and dissolved in the appropriate buffer; purchased Sigma-Aldrich Fine Chemicals (St. Louis, Mo., USA); host or cells: human erythrocytes
Briefly: MCO (ascorbate/Cu)-induced SOD-1 aggregation, right angle light scattering. Here is the method:
The effect of pH, copper ions, and ascorbic acid on the induction of SOD-1 aggregation was examined as follows. […] Right angle light scattering was measured at room temperature using a Photon Technology International QM-1 fluorescence spectrophotometer. Both the excitation and emission wavelengths were set to 350 nm and a 1 nm bandpass. A cuvette with an excitation and emission path lengths of 2 mm and 10 mm, respectively was used for the measurements.
In addition, right angle light scattering was measured using a DynaPro99 Molecular Sizing Instrument with attached MicroSampler-MSXTC/12 (Protein Solutions, Inc., Charlottesville, Va.). A 12 μl-DynaPro quartz cuvette with a path length of 1.5 mm was used for all experiments. In the measurement, the SOD-1 sample solution was illuminated by a 60 mW, 825 nm solid-state laser, and the intensity of light scattered at a 90° angle was measured directly as the solution photon count rate in units of kcounts/sec. The averaged count rate was automatically calculated after all acquisitions of the measurements.

Setting [4] is: 10 mM free radical scavenger in the oxidation reaction.

T1 sequence (P00441 2-154 limits assumed): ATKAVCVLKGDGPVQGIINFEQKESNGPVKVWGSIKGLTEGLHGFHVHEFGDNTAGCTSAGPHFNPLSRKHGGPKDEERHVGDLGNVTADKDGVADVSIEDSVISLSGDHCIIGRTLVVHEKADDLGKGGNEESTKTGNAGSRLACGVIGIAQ
Zinc-deficient SOD-1, sequence (P00441 2-154 limits assumed): as above
apo-SOD-1, sequence (P00441 2-154 limits assumed): as above

Regarding `CC1(C)CCC=[N+]1[O-]` [DMPO], the “inhibition of MCO-induced aggregation (light scattering)” value (“inhibition of MCO-induced aggregation” below) in assay [1] (setting [4]) is “did not inhibit aggregation”.
As to `[Cu]` [copper], the “soluble SOD-1 remaining versus apo-SOD-1 without exogenous metal (RP-HPLC)” value in assay [2] was “significantly more soluble SOD-1”.
`[Cl][Cu][Cl]` [CuCl2]: in assay [3] (25 μM CuCl2 in 10 mM sodium phosphate, no ascorbic acid, 38 hours), the “induction of SOD-1 aggregates” value is reported as “no aggregates of SOD-1 were induced”. The “relative amount of aggregation induced by ascorbic acid” value in assay [3] (addition of 25 μM CuCl2 to 2 mM ascorbic acid) is given as “significantly enhanced”.
For the molecule `O=C1O[C@H]([C@@H](O)CO)C(O)=C1O` [ascorbic acid], in assay [3] (2 mM ascorbic acid, 10 mM phosphate buffer pH 6, 37° C., 38 hours), the “induction of SOD-1 aggregates detectable by right angle light scattering” value is reported as “resulted in the formation of aggregates”.
For the molecule `O=C(O)CN(CCN(CC(=O)O)CC(=O)O)CC(=O)O` [EDTA], in assay [1] (2 mM EDTA in the oxidation reaction), the “inhibition of MCO-induced aggregation” value is “inhibited aggregation”.
In the case of `[Zn]` [zinc], the “soluble SOD-1 remaining versus apo-SOD-1 without exogenous metal (RP-HPLC)” value in assay [2] is on record as “significantly more soluble SOD-1”.
Turning to `OC[C@@H](O)[C@@H](O)[C@H](O)[C@H](O)CO` [mannitol], the “inhibition of MCO-induced aggregation” value in assay [1] (setting [4]) is “did not inhibit aggregation”.
